Reference: US4493839A, “1-Carbapenem-3-carboxylic esters as anti-inflammatory agents” (Merck & Co., Inc., priority 1982, dated 1985)

Target: T1, Human Polymorphonuclear Leukocyte Elastase (Homo sapiens, UniProt P08246)
T1 construct: Crude extract of human polymorphonuclear leukocytes (PMN) containing elastase activity; endogenous in cells; host or cells: human polymorphonuclear leukocytes (crude extract)
T1 sequence (P08246 30-247 limits assumed): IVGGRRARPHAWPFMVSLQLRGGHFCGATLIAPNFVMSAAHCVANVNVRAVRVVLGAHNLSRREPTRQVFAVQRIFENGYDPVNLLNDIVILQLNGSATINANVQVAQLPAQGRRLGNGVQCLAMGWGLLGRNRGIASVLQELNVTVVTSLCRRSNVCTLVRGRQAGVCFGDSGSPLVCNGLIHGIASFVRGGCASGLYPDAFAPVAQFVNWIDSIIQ
Test: Enzyme assay for the inhibition of human polymorphonuclear leukocyte elastase via hydrolysis of N-t-Boc-alanyl-alanyl-prolylalanine-p-nitroanilide
Assay type: biochemical
Conditions: measured within 2 minutes, crude PMN extract, 0.2 mM Boc-AAPAN, pH 7.5; for inhibition at 20 µg/mL: Conc. 20 μg/ml; for inhibition at 50 µg/mL: Conc. 50 μg/ml; for inhibition at 5 µg/mL: Conc. 5 μg/ml; for inhibition at 0.5 µg/mL: Conc. 0.5 μg/ml; for inhibition at 1 µg/mL: Conc. 1 μg/ml; for inhibition at 2 µg/mL: Conc. 2 μg/ml; for inhibition at 10 µg/mL: Conc. 10 μg/ml
Procedure: Protocol--Enzyme Assays for the Inhibition of Human Polymorphonuclear Leukocyte Elastase Via Hydrolysis of N-t-Boc-alanyl-alanyl-prolylalanine-p-nitroanilide
0.05M TES (N-tris[hydroxymethyl]methyl-2-amino-ethanesulfonic acid) Buffer, pH 7.5.
0.2 mM N-to-Boc-alanyl-alanyl-Prolyl-Alanine-p-nitroanilide (Boc-AAPAN).
To prepare substrate, the solid (m.w. 550) was first dissolved in 10.0 ml DMSO. Buffer at pH 7.5 was then added to a final volume of 100 ml.
Crude extract of human polymorphonuclear leukocytes (PMN) containing elastase activity.
Inhibitors (carbapenem esters) to be tested dissolved in DMSO just before use.
To 1.0 ml of 0.2 mM Boc-AAPAN in a cuvette, 0.01-0.1 ml of DMSO with or without inhibitor was added. After mixing, a measurement was taken at 410 mμ to detect any spontaneous hydrolysis due to presence of test compound. 0.05 Milliliters of PMN extract was then added and the ΔOD/min at 410 mμ was measured and recorded. Beckman model 35 spectrophotometer was used.
The elastase activity in the crude PMN extract may vary from one preparation to another. A control of each new batch is run, and the volume added in the assay procedure is adjusted according to activity.

Row | Compound | inhibition at 20 µg/mL | inhibition at 50 µg/mL | inhibition at 5 µg/mL | inhibition at 0.5 µg/mL | inhibition at 1 µg/mL | inhibition at 2 µg/mL | inhibition at 10 µg/mL
1 | CC=C1C(=O)N2C(C(=O)OCc3ccc([N+](=O)[O-])cc3)=C(SCCN3C(=O)c4ccccc4C3=O)CC12 (stereo not shown) | 47% | 73% | – | – | – | – | –
2 | CC(O)C1C(=O)N2C(C(=O)OCc3ccc([N+](=O)[O-])cc3)=C(SCc3ccccc3)CC12 (stereo not shown) | 50% | 75% | – | – | – | – | –
3 | CC(O)C1C(=O)N2C(C(=O)OCc3ccc([N+](=O)[O-])cc3)=C(SCc3ccccn3)CC12 (stereo not shown) | 100% | – | 63% | – | – | – | –
4 | CC(O)C1C(=O)N2C(C(=O)OCc3ccc([N+](=O)[O-])cc3)=C(Sc3ccncc3)CC12 (stereo not shown) | 100% | – | 93% | 21% | 72% | – | –
5 | CC(O)C1C(=O)N2C(C(=O)OCc3ccc([N+](=O)[O-])cc3)=C(SCCO)CC12 (stereo not shown) | 84% | 95% | – | – | – | – | –
6 | CC(OC(=O)OCc1ccccc1[N+](=O)[O-])C1C(=O)N2C(C(=O)OCc3ccccc3[N+](=O)[O-])=C(c3ccc(CN=[N+]=[N-])cc3)CC12 (stereo not shown) | – | 79% | 74% | – | 59% | 66% | 76%
7 | CC(NC(=O)OCc1ccccc1[N+](=O)[O-])C1C(=O)N2C(C(=O)OCc3ccccc3[N+](=O)[O-])=CCC12 (stereo not shown) | 72% | 82% | 23% | – | – | – | 57%
8 | CC(OC(=O)OCc1ccccc1[N+](=O)[O-])C1C(=O)N2C(C(=O)OCc3ccccc3[N+](=O)[O-])=CCC12 (stereo not shown) | 88% | – | 85% | 27% | 46% | 78% | 88%
9 | O=C(OCc1ccccc1)C1=C(SCc2ccccc2)CC2C(CO)C(=O)N12 (stereo not shown) [Benzyl] | – | 97% | 90% | – | 77% | – | 93%
